Patent USRE39723E1, “Semi-synthetic taxanes with antitumor and antiangiogenetic activities” (Indena S.p.A., priority 2000, dated 2007)

How the values were obtained:
[1] = test system: angiogenesis induced by FGF-2 adsorbed on a Matrigel pellet; experiment: Matrigel test, in vivo antiangiogenetic activity (hemoglobin content in pellets); set-up: species or system C57BL6N mice; conditions: after 7 days
Experimental: The antiangiogenic activity was evaluated by means of the Matrigel test, in which angiogenesis is induced by FGF-2 ([…]) adsorbed on a Matrigel pellet (12.5 mg/ml, 0.5 mL) injected subcutaneously in C57BL6N mice.
The tested compound was administered through the oral route daily or through the intraperitoneal route on alternate days, at the shown concentration. After 7 days, the angiogenic response was evaluated by measuring the hemoglobin content in the pellets, according to the procedure by Drabkin.

FGF-2: growth factor adsorbed on the Matrigel pellet to induce angiogenesis [reference compound]
Hemoglobin ([1]; FGF-2 alone (150 mg/pellet) on Matrigel pellet, no test compound): 0.03 ± 0.001 g/dL
% (change of hemoglobin content) ([1]; FGF-2 alone versus control): +300%

13-[(2R, 3S)-3-iso-butyl-2-hydroxy-3-tert-butoxycarbonylamino-propanoyl]-C-seco-10-dehydro-10-deacetyl-7,9-bis-acetyl-baccatine III [Example II]
% (change of hemoglobin content) ([1]; 90 mg/kg i.p. on alternate days): −50%
Hemoglobin ([1]; 90 mg/kg i.p. on alternate days, FGF-2 Matrigel pellet s.c.): 0.015 ± 0.001 g/dL
% (change of hemoglobin content) ([1]; 150 mg/kg p.o. daily): −70%
Hemoglobin ([1]; 150 mg/kg p.o. daily, FGF-2 Matrigel pellet s.c.): 0.009 ± 0.001 g/dL

13-[(2R, 3S)-3-isobutyl-2-hydroxy-3-tert-butoxycarbonylamino-propanoyl]-C-seco-10-dehydro-10-deacetyl-7,9-bis-acetyl-baccatine III 1,14-carbonate [Example VII]
% (change of hemoglobin content) ([1]; 50 mg/kg i.p. on alternate days): −40%
Hemoglobin ([1]; 50 mg/kg i.p. on alternate days, FGF-2 Matrigel pellet s.c.): 0.014 g/dL
% (change of hemoglobin content) ([1]; 100 mg/kg p.o. daily): −70%
Hemoglobin ([1]; 100 mg/kg p.o. daily, FGF-2 Matrigel pellet s.c.): 0.009 g/dL

CC(=O)O[C@H]1C(=O)[C@@]2(C)[C@H]([C@H](OC(=O)c3ccccc3)[C@]3(O)C[C@H](OC(=O)[C@H](O)[C@@H](NC(=O)c4ccccc4)c4ccccc4)C(C)=C1C3(C)C)[C@]1(OC(C)=O)CO[C@@H]1C[C@@H]2O [Paclitaxel]
neuro-toxicity (tremors) (mouse, in vivo): induces tremors
weight loss (nude mouse with human tumor cells, dose effective in inhibiting tumor growth (same antitumor activity)): up to 20%
